For eight substances, IC50 results are on record in patent US20060079453A1, “Hla binding peptides and their uses” (priority 2002, published 2006).

One assay concerns the target HLA-DR DRB1*0101 (DR1) (Homo sapiens, UniProt P01903+P01911, A100R/D57E/F55L/F60I/F76Y/I96L/L162R/M171V/P40L/Q125E/R42F/V115G/Y59C). Kind of assay: biochemical. The class given is binding.
Another assay concerns the target HLA-DR DRB1*0401 (DR4) (Homo sapiens, UniProt P01903+P01911, A100K/A169T/F76Y/I96L/K127E/L162R/M171V/N62H/P40V/Q125Y/R42H/S133A/S149N/S66Y/V115G/V209L/W38E). Kind of assay: biochemical. The assay is classed as binding.
The target of the next assay is HLA-DR DRB1*0701 (DR7) (Homo sapiens, UniProt P01903+P01911, A100R/A102G/A103Q/D57E/D86V/E43K/F76Y/K127E/L162R/M171V/P40G/Q125H/Q99D/R33Q/R42Y/R54Q/S133A/S66F/T210M/V115G/Y107V/Y59L/Y89S). The assay is described as follows: biochemical. The class given is binding.
Another assay addresses HLA-DR DRB1*1101 (DR11) (Homo sapiens, UniProt P01903+P01911, A100R/A169T/A87E/I96F/K41T/L162R/M171V/P40S/Q125H/Q178H/Q39Y/Q99D/R42S/S66Y/T262R/V115G/W38E). Kind of assay: biochemical. The assay is classed as binding.
The target of a further assay is HLA-DR DRB3*0101 (DR52) (Homo sapiens, UniProt P01903+P79483). Kind of assay: biochemical. The assay is classed as binding.
In a further assay the target is HLA-DR DRB5*0101 (DR51) (Homo sapiens, UniProt P01903+Q30154). The assay is described as follows: biochemical. The assay is classed as binding.
In assay [1] the target is HLA-DQ DQA1*0301/B*0301 (DQ7) (Homo sapiens, UniProt P01909+P01920, A209T/C70Q/DUP78-78/E183D/F237L/G63E/I129T/K197E/L178F/L74F/L98V/Q57E/Q76R/S185I/S97I/T49S/V73L). The assay is described as follows: biochemical. The class given is binding.
For a further assay, the system named is HLA-DR DRB5*0201. The class given is binding, human. Conditions: read-out: DRB5 *0201.
Another assay has as its target HLA-DR DRB1*0301 (DR3) (Homo sapiens, UniProt P01903+P01911, A100K/A102G/A103R/A169T/F55Y/I96L/K41T/L162R/M171V/P40S/Q125H/Q178H/Q39Y/R42S/S66N/T106N/T262R/W38E/Y61H). Kind of assay: biochemical. The assay is classed as binding.
A further assay has as its target HLA-DR DRB1*0405 (DR4) (Homo sapiens, UniProt P01903+P01911, A100R/A169T/D86S/F76Y/I96L/K127E/L162R/M171V/N62H/P40V/Q125Y/R42H/S133A/S149N/S66Y/V115G/V209L/W38E). The assay is described as follows: biochemical. The assay is classed as binding. Conditions: DRB1 *0405.
A further assay addresses HLA-DR DRB1*0802 (DR8) (Homo sapiens, UniProt P01903+P01911, A100R/A103L/A169T/F76Y/H45Y/I96F/K41T/L162R/M171V/P40S/Q125H/Q178H/Q39Y/Q99D/R218S/R42G/S66Y/V115G/W38E). Kind of assay: biochemical. The class given is binding.
The target of a further assay is HLA-DR DRB1*0901 (DR9) (Homo sapiens, UniProt P01903+P01911, A100R/A103E/D57H/D86V/F55Y/F60I/F76Y/I96F/K127E/L162R/M171V/P40D/Q125H/Q99R/R33Q/R42F/S133A/S66N/T210M/V115G/W38K/Y107V/Y59G/Y89S). The assay is described as follows: biochemical. The class given is binding. Particulars: DRB1 *0901.
The next assay deals with HLA-DR DRB1*1302 (DR13) (Homo sapiens, UniProt P01903+P01911, A100E/A169T/K41T/L162R/M171V/P40S/Q125H/Q178H/Q39Y/Q99D/R42S/S66N/T262R/V115G/W38E/Y61H). The assay is described as follows: biochemical. The assay is classed as binding. Conditions: DRBI *1302.
Another assay has as its target HLA-DR DRB1*1501 (DR15) (Homo sapiens, UniProt P01903+P01911). The assay is described as follows: biochemical. The assay is classed as binding. Particulars: DRBI *1501.
The next assay deals with HLA-DR DRB4*0101 (DR53) (Homo sapiens, UniProt P01903+P13762, G164S). The assay is described as follows: biochemical. The class given is binding. Particulars: DRB4 *0101.
The target in assay [2] is HLA-DQ DQA1*0501/B*0201 (DQ2) (Homo sapiens, UniProt P01909+P01920, A45G/A70V/D89A/E106A/E77G/E98D/H199R/L107V/N214S/P84L/P87L/T103K/T109R/T172A/T60S/V78E/V99I/Y58L/Y62S/Y69I/Y79F). The assay is described as follows: biochemical.
The target of assay [3] is HLA-DQ DQA1*0301/B*0302 (DQ8) (Homo sapiens, UniProt P01909+P01920, A209T/A45G/C70Q/D89A/DUP78-78/E183D/E77G/F237L/G63E/H199R/I129T/K197E/L178F/L74F/L98V/Q57E/Q76R/S185I/S97I/T217I/T49S/V73L/Y58L). Kind of assay: biochemical.

Read-outs that look alike come from different tables or passages of the source. No end group written: not given here.

Sequence of HLA-DR DRB1*1302 (DR13) (P01903 26-254 limits assumed, other chains not shown): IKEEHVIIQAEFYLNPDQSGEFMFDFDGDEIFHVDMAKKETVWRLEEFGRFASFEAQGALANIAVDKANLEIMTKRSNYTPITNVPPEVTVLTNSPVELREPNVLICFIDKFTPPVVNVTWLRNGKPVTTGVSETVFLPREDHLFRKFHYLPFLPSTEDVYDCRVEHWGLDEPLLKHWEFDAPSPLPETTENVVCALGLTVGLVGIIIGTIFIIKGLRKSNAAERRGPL
Sequence of HLA-DR DRB1*0301 (DR3) (P01903 26-254 limits assumed, other chains not shown): as above
Sequence of HLA-DR DRB1*1101 (DR11) (P01903 26-254 limits assumed, other chains not shown): as above

As for AAFAAAKTAAAFA, the IC50 at HLA-DR DRB1*0101 (DR1) (read-out: DRB1 *0101) was determined as 1.3 nM; on HLA-DR DRB1*0401 (DR4) (read-out: DRB1 *0401), 0.19 nM; on HLA-DR DRB1*0701 (DR7) (read-out: DRB1 *0701), 67 nM; at HLA-DR DRB1*1101 (DR11) (read-out: DRB1 *1101) it was 4.6 nM; on HLA-DR DRB3*0101 (DR52) (read-out: DRB3 *0101) it was 20000 nM; at HLA-DR DRB5*0101 (DR51) (read-out: DRB5 *0101), 25 nM. Moreover, the IC50 in [1] (read-out: DQB1*0301) was determined as 49 nM; with HLA-DR DRB5*0201, 6.4 nM.

As to GSHLVEALYLVCGER, the IC50 against HLA-DR DRB1*0101 (DR1) (DRB1 *0101) was 525 nM; against HLA-DR DRB1*0301 (DR3), > 187000 nM; against HLA-DR DRB1*0401 (DR4) (DRB1 *0401), 8290 nM; against HLA-DR DRB1*0405 (DR4), 4610 nM; against HLA-DR DRB1*0701 (DR7) (DRB1 *0701), 560 nM; on HLA-DR DRB1*0802 (DR8), > 54400 nM. Also, the IC50 on HLA-DR DRB1*0901 (DR9) was 5390 nM; at HLA-DR DRB1*1101 (DR11) (DRB1 *1101), > 10500 nM; against HLA-DR DRB1*1302 (DR13), 8030 nM; against HLA-DR DRB1*1501 (DR15) it was 1350 nM; against HLA-DR DRB3*0101 (DR52), > 18700 nM; against HLA-DR DRB4*0101 (DR53), 372 nM. Also, the IC50 is 29300 nM against HLA-DR DRB5*0101 (DR51) (DRB5 *0101), > 89300 nM in assay [1], 677 nM in assay [2] and 2490 nM in assay [3].

(15A)RQTTLKAAA: the IC50 on HLA-DR DRB1*0101 (DR1) (read-out: DRB1 *0101) came to 4.2 nM; at HLA-DR DRB1*0401 (DR4) (read-out: DRB1 *0401) it was 0.31 nM; on HLA-DR DRB1*1101 (DR11) (read-out: DRB1 *1101), 1.8 nM; at HLA-DR DRB5*0101 (DR51) (read-out: DRB5 *0101) it was 9.5 nM; in the assay with HLA-DR DRB5*0201 it was 3100 nM.

On to LQLHVDKAVSGLRSL, for which the IC50 was 22 nM against HLA-DR DRB1*0301 (DR3); 9.7 nM against HLA-DR DRB1*0401 (DR4) (DRB1 *0401); 13600 nM against HLA-DR DRB1*0405 (DR4); 3210 nM on HLA-DR DRB1*0701 (DR7) (DRB1 *0701); 801 nM against HLA-DR DRB1*0802 (DR8); > 78900 nM against HLA-DR DRB1*0901 (DR9). The IC50 against HLA-DR DRB1*1101 (DR11) (DRB1 *1101) amounted to 910 nM; at HLA-DR DRB1*1302 (DR13), 53 nM; against HLA-DR DRB1*1501 (DR15), 2710 nM; against HLA-DR DRB3*0101 (DR52) it was 1040 nM; against HLA-DR DRB4*0101 (DR53) it was 31 nM; against HLA-DR DRB5*0101 (DR51) (DRB5 *0101), 76 nM. Also, the IC50 came out at 88 nM in assay [1], 7590 nM in [2] and 7840 nM in assay [3].

On to QHLCGSHLVEALYLV, for which the IC50 against HLA-DR DRB1*0101 (DR1) (DRB1 *0101) was 170 nM; on HLA-DR DRB1*0301 (DR3) it was 48600 nM; against HLA-DR DRB1*0401 (DR4) (DRB1 *0401), 13000 nM; on HLA-DR DRB1*0405 (DR4), 9820 nM; against HLA-DR DRB1*0701 (DR7) (DRB1 *0701) it was 86 nM; against HLA-DR DRB1*0802 (DR8), > 54400 nM. The IC50 against HLA-DR DRB1*0901 (DR9) was 7420 nM; against HLA-DR DRB1*1101 (DR11) (DRB1 *1101) it was > 10500 nM; at HLA-DR DRB1*1302 (DR13), 7620 nM; against HLA-DR DRB3*0101 (DR52) it was 14800 nM; at HLA-DR DRB4*0101 (DR53), 1480 nM; against HLA-DR DRB5*0101 (DR51) (DRB5 *0101) it was 32000 nM. Further, the figures for the IC50 in assay [1], in [2] and in assay [3] were 2550 nM, 359 nM and 8410 nM, respectively.

On to GLALLSEAVLRGQAL [GLALLSEAVLRGQAL], for which the IC50 against HLA-DR DRB1*0101 (DR1) (DRB1 *0101) amounted to 83 nM; at HLA-DR DRB1*0301 (DR3), 816 nM; against HLA-DR DRB1*0401 (DR4) (DRB1 *0401) it was 11 nM; against HLA-DR DRB1*0405 (DR4), 1440 nM; on HLA-DR DRB1*0701 (DR7) (DRB1 *0701), 4610 nM; against HLA-DR DRB1*0802 (DR8), 2000 nM. For the same substance, the IC50 at HLA-DR DRB1*0901 (DR9) was 15100 nM; on HLA-DR DRB1*1101 (DR11) (DRB1 *1101) it was 2580 nM; against HLA-DR DRB1*1302 (DR13), 1220 nM; against HLA-DR DRB3*0101 (DR52), > 38200 nM; on HLA-DR DRB4*0101 (DR53), 3.5 nM; in assay [1], 107 nM. The IC50 is 6740 nM in assay [2] and 17000 nM in [3].

In the case of YAR(15A)RQTTLKAAA, the IC50 at HLA-DR DRB1*1101 (DR11) (read-out: DRB1 *1101) turned out to be 1.2 nM; at HLA-DR DRB5*0101 (DR51) (read-out: DRB5 *0101) it was 0.94 nM; with HLA-DR DRB5*0201 it was 62 nM.

YAR(15A)SQTTLKAKT: the IC50 on HLA-DR DRB1*0101 (DR1) (read-out: DRB1 *0101) turned out to be 2.4 nM; on HLA-DR DRB1*0401 (DR4) (read-out: DRB1 *0401) it was 0.78 nM; on HLA-DR DRB1*1101 (DR11) (read-out: DRB1 *1101), 2.5 nM; at HLA-DR DRB5*0101 (DR51) (read-out: DRB5 *0101), 1.4 nM; in the assay with HLA-DR DRB5*0201 it was 48 nM.
